Target: human α5β3γ2 receptors (α5-GABAA receptor) (Homo sapiens (Human), UniProt P18507+P31644)
Assay: 3H-flunitrazepam competition binding, human α5β3γ2 GABAA receptor
Settings: HEK293 cell membranes, 1 nM 3H-flunitrazepam; read-out: α5-GABAAR Ki
Description: The affinity of the compound to each subtype of GABAA receptor was determined by competing for the binding of ^3H-flunitrazepam to HEK293 cells stably expressing human α1β3γ2, α2β3γ2, α3β3γ2, and α5β3γ2 receptors.
The cells were suspended in 50 mM Tris-HCl buffer (pH=7.4), homogenized 10 times on ice with a homogenizer for 20 seconds, and centrifuged at 1000 g for 10 minutes at 4° C. The supernatant was collected, and the above steps were repeated. The supernatant was centrifuged at 4° C. (33800 g; Thermo, rotor: A27-8×50) for 60 minutes, and the precipitate was resuspended in Tris buffer (50 mM Tris-HCl, 10 mM MgCl2, 0.5 mM EDTA, 10% glycerol). Protein was measured (BCA method, Pierce), and 1 mL aliquots were prepared and stored at −80° C.
The radioligand competition binding assay was performed in a 200 μL system (96-well plate) containing 100 μL of cell membrane. The concentration of ^3H-flunitrazepam was 1 nM and the concentration of the test compound was in the range of […]. Flumazenil was used as a control. 1 μL of 2 mM flumazenil (final concentration […]) was added to the low signal control well (Low control, LC), and 1 μL of DMSO was added to the high signal control well (High control, HC). The final concentration of target membrane protein was […]. All test compound sample storage solutions were 10 mM. The working concentration of the samples was to dilute all the samples to 0.2 mM with DMSO, followed by 4-fold serial gradient dilutions for a total of 8 concentration gradients. The 96-well plate was sealed with a sealing film, and then incubated on a shaker at room temperature for 1 hour. At the same time, the GF/C filter plate was soaked in soaking buffer (0.3% PEI, stored at 4° C.) for at least 0.5 hours. After the binding incubation was completed, the cells were collected onto a GF/C filter plate using a cell harvester. The plate was washed four times with washing buffer (50 mM Tris-HCl, pH 7.4, stored at 4° C.). After drying in a 50° C. oven for 1 hour, the bottom of the dried GF/C filter plate was sealed. The residual radioactivity on the filter membrane was detected using liquid scintillation counting. 50 μL of scintillation fluid was added to each well, and the plate was sealed. The readings were taken using a Microbeta2. The inhibitory activity of the test sample on the binding of ^3H-flunitrazepam to GABAA receptor membrane proteins was calculated, and the IC50 of each test sample was calculated by dose-effect curve fitting (GraphPad Prism 5 software), and the Ki of the sample was calculated from the IC50, thus evaluating the binding ability of the sample to the various subtypes of GABAA receptors.

Row | SMILES | Ki [nM]
1 | COc1cc(OCc2c(C)nnn2-c2ccc(C(F)F)cc2)nnc1N1CCNC(=O)C1 [Example 135, 4-(6-((1-(4-(Difluoromethyl)phenyl)-4-methyl-1H-1,2,3-triazol-5-yl)methoxy)-4-methoxypyridazin-3-yl)piperazin-2-one] | 1.05
2 | Cc1nnn(-c2ccc(C(F)F)cc2)c1COc1nnc(N2CCNC(=O)C2)c2ncccc12 [Example 137, 4-(5-((1-(4-(Difluoromethyl)phenyl)-4-methyl-1H-1,2,3-triazol-5-yl)methoxy)pyrido[2,3-d]pyridazin-8-yl)piperazin-2-one] | 0.49
3 | Cc1nnn(-c2ccc(C(F)F)cc2)c1COc1ccc(N2CCN(CCn3cccn3)C(=O)C2)nn1 [Example 138, 1-(2-(1H-Pyrazol-1-yl)ethyl)-4-(6-((1-(4-(difluoromethyl)phenyl)-4-methyl-1H-1,2,3-triazol-5-yl)methoxy)pyridazin-3-yl)piperazin-2-one] | 2.11
4 | COCCCN1CCN(c2ccc(OCc3c(C)nnn3-c3ccc(C(F)F)cc3)nn2)CC1=O [Example 140, 4-(6-((1-(4-(Difluoromethyl)phenyl)-4-methyl-1H-1,2,3-triazol-5-yl)methoxy)pyridazin-3-yl)-1-(3-methoxypropyl)piperazin-2-one] | 1.41
5 | Cc1nnn(-c2ccc(C(F)F)cc2)c1COc1ccc(N2CCN(C3CN(C(C)C)C3)C(=O)C2)nn1 [Example 142, 4-(6-((1-(4-(Difluoromethyl)phenyl)-4-methyl-1H-1,2,3-triazol-5-yl)methoxy)pyridazin-3-yl)-1-(1-isopropylazetidin-3-yl)piperazin-2-one] | 1.8
6 | Cc1nnn(-c2ccc(C(F)F)cc2)c1COc1ccc(N2CCN(CCCc3ccc(Cl)cc3)C(=O)C2)nn1 [Example 144, 1-(3-(4-Chlorophenyl)propyl)-4-(6-((1-(4-(difluoromethyl)phenyl)-4-methyl-1H-1,2,3-triazol-5-yl)methoxy)pyridazin-3-yl)piperazin-2-one] | 1.63
7 | COc1cnccc1NC(=O)C1CN(c2ccc(OCc3c(C)nnn3-c3ccc(C(F)F)cc3)nn2)C1 [Example 149, 1-(6-((1-(4-(Difluoromethyl)phenyl)-4-methyl-1H-1,2,3-triazol-5-yl)methoxy)pyridazin-3-yl)-N-(3-methoxypyridin-4-yl)azetidine-3-carboxamide] | 2.04
8 | Cc1nnn(-c2ccc(C(F)F)cc2)c1COc1ccc(N2CC(C(=O)Nc3cnn(C(C)C)c3)C2)nn1 [Example 150, 1-(6-((1-(4-(Difluoromethyl)phenyl)-4-methyl-1H-1,2,3-triazol-5-yl)methoxy)pyridazin-3-yl)-N-(1-isopropyl-1H-pyrazol-4-yl)azetidine-3-carboxamide] | 2.35
9 | Cc1nnn(-c2ccc(C(F)F)cc2)c1COc1ccc(N2CC(C(=O)Nc3cccnc3F)C2)nn1 [Example 151, 1-(6-((1-(4-(Difluoromethyl)phenyl)-4-methyl-1H-1,2,3-triazol-5-yl)methoxy)pyridazin-3-yl)-N-(2-fluoropyridin-3-yl)azetidine-3-carboxamide] | 1.36
10 | COc1cccnc1NC(=O)C1CN(c2ccc(OCc3c(C)nnn3-c3ccc(C(F)F)cc3)nn2)C1 [Example 152, 1-(6-((1-(4-(Difluoromethyl)phenyl)-4-methyl-1H-1,2,3-triazol-5-yl)methoxy)pyridazin-3-yl)-N-(3-methoxypyridin-2-yl)azetidine-3-carboxamide] | 1.65
11 | Cc1nnn(-c2ccc(C(F)F)cc2)c1COc1ccc(N2CC(C(=O)Nc3cnn(C(F)F)c3)C2)nn1 [Example 153, N-(1-(Difluoromethyl)-1H-pyrazol-4-yl)-1-(6-((1-(4-(difluoromethyl)phenyl)-4-methyl-1H-1,2,3-triazol-5-yl)methoxy)pyridazin-3-yl)azetidine-3-carboxamide] | 1.89
12 | Cc1nnn(-c2ccc(C(F)F)cc2)c1COc1ccc(N2CC(C(=O)N3CCOC(C)(C)C3)C2)nn1 [Example 158, (1-(6-((1-(4-(Difluoromethyl)phenyl)-4-methyl-1H-1,2,3-triazol-5-yl)methoxy)pyridazin-3-yl)azetidin-3-yl)(2,2-dimethylmorpholino)methanone] | 4.31
13 | COCc1ccc(-n2nnc(C)c2COc2ccc(N3CCN4CCNC(=O)[C@@H]4C3)nn2)cc1 [Example 161, (S)-8-(6-((1-(4-(Methoxymethyl)phenyl)-4-methyl-1H-1,2,3-triazol-5-yl)methoxy)pyridazin-3-yl)hexahydro-2H-pyrazino[1,2-a]pyrazin-1(6H)-one] | 13.8
14 | Cc1nnn(-c2ccc(Cl)cc2)c1COc1ccc(N2CCNC(=O)C2)nn1 [Example 164, 4-(6-((1-(4-Chlorophenyl)-4-methyl-1H-1,2,3-triazol-5-yl)methoxy)pyridazin-3-yl)piperazin-2-one] | 2.4
15 | Cc1nnn(-c2ccc(C(F)F)cc2F)c1COc1ccc(N2CCNC(=O)C2)nn1 [Example 167, 4-(6-((1-(4-(Difluoromethyl)-2-fluorophenyl)-4-methyl-1H-1,2,3-triazol-5-yl)methoxy)pyridazin-3-yl)piperazin-2-one] | 1.08
16 | Cc1nnn(-c2ccc(C(F)F)cc2)c1COc1ccc(C2CCNC(=O)C2)cn1 (stereo not drawn) [Example 170, 4-(6-((1-(4-(Difluoromethyl)phenyl)-4-methyl-1H-1,2,3-triazol-5-yl)methoxy)pyridin-3-yl)piperidin-2-one] | 2.3

Now from value to compound:

Row | Ki [nM] | SMILES
17 | 0.67 | CCNC(=O)C1=CCCN(c2ccc(OCc3c(C)nnn3-c3ccc(C(F)F)cc3)nn2)C1 [Example 172, 1-(6-((1-(4-(Difluoromethyl)phenyl)-4-methyl-1H-1,2,3-triazol-5-yl)methoxy)pyridazin-3-yl)-N-ethyl-1,2,5,6-tetrahydropyridine-3-carboxamide]
18 | 1.39 | Cc1nnn(-c2ccc(C(F)F)cc2)c1COc1ccc(N2CC(=O)N3CCOC[C@@H]3C2)nn1 [Example 174, (S)-8-(6-((1-(4-(Difluoromethyl)phenyl)-4-methyl-1H-1,2,3-triazol-5-yl)methoxy)pyridazin-3-yl)hexahydropyrazino[2,1-c][1,4]oxazin-6(1H)-one]
19 | 2.63 | Cc1nnn(-c2ccc(C(F)F)cc2)c1COc1ccc(N2CC(=O)N3CCS(=O)(=O)C[C@H]3C2)nn1 [Example 175, (R)-8-(6-((1-(4-(Difluoromethyl)phenyl)-4-methyl-1H-1,2,3-triazol-5-yl)methoxy)pyridazin-3-yl)hexahydropyrazino[2,1-c][1,4]thiazin-6(1H)-one 2,2-dioxide]
20 | 1.34 | Cc1nnn(-c2ccc(C(F)F)cc2)c1COc1ccc(N2CC(=O)N3CCS(=O)(=O)C[C@@H]3C2)nn1 [Example 176, (S)-8-(6-((1-(4-(Difluoromethyl)phenyl)-4-methyl-1H-1,2,3-triazol-5-yl)methoxy)pyridazin-3-yl)hexahydropyrazino[2,1-c][1,4]thiazin-6(1H)-one 2,2-dioxide]
21 | 1.26 | Cc1nnn(-c2ccc(C(F)F)cc2)c1COc1ccc(N2CC(=O)N3C[C@@H]4C[C@]3(CO4)C2)nn1 [Example 177, (3S,9aR)-8-(6-((1-(4-(Difluoromethyl)phenyl)-4-methyl-1H-1,2,3-triazol-5-yl)methoxy)pyridazin-3-yl)tetrahydro-1H-3,9a-methanopyrazino[2,1-c][1,4]oxazin-6(7H)-one]
22 | 6.33 | Cc1nnn(-c2ccc(C(F)F)cc2)c1COc1ccc(N2CC(=O)N3CC4CC3(C4)C2)nn1 [Example 179, 2-(6-((1-(4-(Difluoromethyl)phenyl)-4-methyl-1H-1,2,3-triazol-5-yl)methoxy)pyridazin-3-yl)tetrahydro-6H-7,8a-methanopyrrolo[1,2-a]pyrazin-4(1H)-one]
23 | 0.71 | O=C1CN(c2ccc(OCc3c(Cl)nnn3-c3ccc(C(F)F)cc3)nn2)C[C@@H]2COCCN12 [Example 182, (R)-8-(6-((4-Chloro-1-(4-(difluoromethyl)phenyl)-1H-1,2,3-triazol-5-yl)methoxy)pyridazin-3-yl)hexahydropyrazino[2,1-c][1,4]oxazin-6(1H)-one]
24 | 1.37 | O=C1CN(c2ccc(OCc3c(Cl)nnn3-c3ccc(C(F)F)cc3)nn2)C[C@H]2COCCN12 [Example 183, (S)-8-(6-((4-Chloro-1-(4-(difluoromethyl)phenyl)-1H-1,2,3-triazol-5-yl)methoxy)pyridazin-3-yl)hexahydropyrazino[2,1-c][1,4]oxazin-6(1H)-one]

Reference: patent publication US20250136581A1, “SUBSTITUTED TRIAZOLE DERIVATIVE, PREPARATION METHOD THEREFOR, PHARMACEUTICAL COMPOSITION THEREOF, AND USE THEREOF” (SHANGHAI SIMR BIOTECHNOLOGY CO., LTD., priority 2021, published 2025)
